# In paper PMC9163592 (The Journal of Biological Chemistry, 2022):
# Tests used:
# IsdH NEAT3 = IsdH NEAT3 (Staphylococcus aureus, UniProt Q931P4); assay: biochemical
# IsdH linker-NEAT3 = IsdH linker-NEAT3 (Staphylococcus aureus, UniProt Q931P4); assay: biochemical
# Sequence of IsdH linker-NEAT3 (Q931P4 486-664): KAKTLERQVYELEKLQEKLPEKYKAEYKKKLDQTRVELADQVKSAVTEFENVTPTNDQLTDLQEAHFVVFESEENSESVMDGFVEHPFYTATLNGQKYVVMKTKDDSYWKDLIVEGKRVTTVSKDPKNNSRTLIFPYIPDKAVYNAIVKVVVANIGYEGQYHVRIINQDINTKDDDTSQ
# Sequence of IsdH NEAT3 (Q931P4 539-664): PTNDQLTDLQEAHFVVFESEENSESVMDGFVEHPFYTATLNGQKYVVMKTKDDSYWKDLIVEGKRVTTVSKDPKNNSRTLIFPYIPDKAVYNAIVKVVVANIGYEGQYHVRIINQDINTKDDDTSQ
smiles,measurement,setting,value
C=CC1=C(C)C2=Cc3c(C=C)c(C)c4[n]3[Fe]([Cl])[n]3c(c(C)c(CCC(=O)O)c3=CC3=NC(=C4)C(C)=C3CCC(=O)O)=CC1=N2 [heme],Kd,IsdH NEAT3,1.05 ± 0.15 nM
same,Kd,IsdH linker-NEAT3,0.51 ± 0.16 nM
